Source: patent US8377478B2, “Solid detergent composition” (Innospec Limited, priority 2007, dated 2013)

Key:
Assay type in all cases: physicochemical
[1] = Increase in mass of the samples over time
Source text: Table 3 show how the samples increased in mass over time.

[2] = Solubility: EDDS content of a saturated solution in water; settings: room temperature, stirred overnight, as free EDDS, ignoring counter ion
Method: The solubility of each sample was measured as follows: An excess of solid material was added to 5 ml of water and stirred overnight at room temperature. The solution was filtered and the filtrate analysed for EDDS content by HPLC. The solubility values given in table 4 refer to the amount of free EDDS or succinate ion present and ignore the mass of any associated counter ion.

[3] = Appearance of the materials observed periodically over 72 hours
Method: The appearance of each of the materials was observed periodically over 72 hours. The observations are recorded in table 2.

O=C([O-])CC(NCCNC(CC(=O)[O-])C(=O)[O-])C(=O)[O-].[Mg+2].[Mg+2] (centres unmarked) [Example A]
% increase in mass after 72 hr [1]: 0.10% | EDDS content of a saturated solution solubility [2]: 164300 mg/kg | Appearance after 24 hr ([3]; after 24 hr): Free flowing | Appearance after 48 hr [3]: Free flowing | Appearance after 72 hr [3]: Free flowing | Initial Appearance [3]: Free flowing

O=C([O-])CC(NCCNC(CC(=O)[O-])C(=O)[O-])C(=O)[O-].[Ca+2].[Ca+2] (centres unmarked) [F]
% increase in mass after 72 hr [1]: 8.81% | EDDS content of a saturated solution solubility [2]: 10100 mg/kg | Appearance after 24 hr ([3]; after 24 hr): Slightly | Appearance after 48 hr [3]: Slightly | Appearance after 72 hr [3]: Slightly | Initial Appearance [3]: Free flowing

O=C1CCC(=O)ON2CCN(O1)OC(=O)CCC(=O)O2.[Na].[Na].[Na] [Na3EDDS, trisodium ethylenediamine disuccinate]
% increase in mass after 72 hr [1]: 25% | Appearance after 48 hr [3]: Very Sticky | Appearance after 72 hr [3]: Very Sticky | Appearance after 24 hr ([3]; cell in the 24 hr column marked (2 hr)): Sticky Solid | Initial Appearance [3]: Free flowing
